The structures appear in SMILES notation.

The target in this experiment is T1, Steryl-sulfatase (Homo sapiens, UniProt P08842).
T1 sequence (P08842 whole entry): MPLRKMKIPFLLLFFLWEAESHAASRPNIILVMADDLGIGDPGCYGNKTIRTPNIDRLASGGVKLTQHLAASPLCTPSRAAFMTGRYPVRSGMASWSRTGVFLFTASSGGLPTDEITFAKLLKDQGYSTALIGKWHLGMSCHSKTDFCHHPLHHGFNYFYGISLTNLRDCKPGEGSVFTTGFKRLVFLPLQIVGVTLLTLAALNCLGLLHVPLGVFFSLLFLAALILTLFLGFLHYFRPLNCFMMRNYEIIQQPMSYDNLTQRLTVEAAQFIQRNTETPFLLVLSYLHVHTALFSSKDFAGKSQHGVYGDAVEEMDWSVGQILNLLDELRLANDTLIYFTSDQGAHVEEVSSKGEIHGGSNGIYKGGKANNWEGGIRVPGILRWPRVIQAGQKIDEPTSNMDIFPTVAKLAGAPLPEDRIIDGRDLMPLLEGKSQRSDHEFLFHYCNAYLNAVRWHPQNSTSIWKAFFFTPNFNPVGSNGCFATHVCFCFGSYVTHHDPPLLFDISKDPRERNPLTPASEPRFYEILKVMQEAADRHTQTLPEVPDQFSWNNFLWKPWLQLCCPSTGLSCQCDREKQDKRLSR
Briefly: Inhibition of purified human steroid sulfatase.

On to `O=COc1ccc2nc(C=C3C4CC5CC(C4)CC3C5)oc2c1`, for which the IC50 (as a rule, the point on the concentration scale where inhibition reaches its midpoint) is 1.5 µM.

For the compound `Oc1ccc2nc(C=C3C4CC5CC(C4)CC3C5)oc2c1`, half-maximal inhibition (IC50) required 0.26 µM.

The compound `C[C@]12CC[C@H](OC=O)C=C1CCC1C2CC[C@]2(C)C(=O)CCC12` (stereo partly drawn) returned an IC50 greater than 10 µM.

Compound `C[C@]12CC[C@@H]3c4ccc(OC(=O)NCc5ccccc5)cc4CCC3[C@@H]1CCC2=O` (single isomer, unassigned) returned an IC50 greater than 50 µM.

`CC(C)(C)OC(=O)NCC(=O)Oc1ccc2c(c1)CCC1[C@@H]2CC[C@]2(C)C(=O)CC[C@@H]12` (single isomer, unassigned) showed an IC50 greater than 50 µM.

`C[C@]12CC[C@@H]3c4ccc(OC=O)cc4CCC3[C@@H]1CCC2=O` (single isomer, unassigned) gave an IC50 of 0.42 µM.

`C[C@]12CC[C@@H]3c4ccc(OC(=O)CN)cc4CCC3[C@@H]1CCC2=O` (single isomer, unassigned) came in with an IC50 greater than 50 µM.

In turn, `C[C@]12CC[C@@H]3c4ccc(OC#N)cc4CCC3[C@@H]1CCC2=O` (single isomer, unassigned) came in with an IC50 greater than 50 µM.

For `CC(=O)Oc1ccc2c(c1)CCC1[C@@H]2CC[C@]2(C)C(=O)CC[C@@H]12` (single isomer, unassigned), the IC50 is greater than 50 µM.

For the compound `C[C@]12CC[C@@H]3c4ccc(OC(=N)S)cc4CCC3[C@@H]1CCC2=O` (single isomer, unassigned), the IC50 was greater than 50 µM.

Consider `C[C@]12CC[C@@H]3c4ccc(OC(N)=O)cc4CCC3[C@@H]1CCC2=O` (single isomer, unassigned), for which the IC50 was greater than 50 µM.

`C[C@]12CC[C@@H]3c4ccc(OS(N)(=O)=O)cc4CCC3[C@@H]1CCC2=O` (single isomer, unassigned) [EMATE] came in with an IC50 of 0.05 µM.

As to `O=COc1ccccc1` [FORMIC ACID PHENYL ESTER], the IC50 is greater than 30 µM.

Source of the values: ChEMBL document CHEMBL1137040, “Estrone formate: a novel type of irreversible inhibitor of human steroid sulfatase” (Bioorg Med Chem Lett, 2004).
